Results taken from patent US12453731B2, “Aniline-based WDR5 protein-protein interaction inhibitor, and preparation method and use thereof” (CHINA PHARMACEUTICAL UNIVERSITY, priority 2019, dated 2025).

Experiments:
[1] = tested on: MV4-11 human acute mononuclear leukemia cells; test: anti-proliferative activity against leukemia cells MV4-11; type: cell-based; conditions: Homo sapiens, MV4-11, MV4-11 cells; read-out: GI50 (MV-411)
From the text: (§1) Some compounds of the present disclosure have also been tested for the antiproliferative activity against leukemia cells.

[2] = tested on: Molm-13 human acute myeloid leukemia cells; test: anti-proliferative activity against leukemia cells Molm-13; type: cell-based; conditions: Homo sapiens, MOLM-13, Molm-13 cells
From the text: as §1

[3] = tested on: methylation level of H3K4; test: inhibition of the methylation level of H3K4 (methyltransferase activity); type: biochemical
MLL1-WDR5 PPI = MLL1-WDR5 PPI (Homo sapiens (Human), UniProt P61964); test: fluorescent probe assay of MLL1-WDR5 protein-protein interaction inhibition; type: binding; conditions: fluorescent probe based on MLL1 peptide, incubation 0.5 hrs, read-out: MLL1-WDR5 PPI inhibiting activity IC50
Protocol: In the present disclosure, a fluorescent molecular probe was constructed based on a MLL1 peptide fragment binding to WDR5, for use as a method for study on an aniline compound interfering with WDR5 protein-protein interaction, to determine an inhibition rate of the aniline compound at various concentrations, and then compute the IC50 value. Specific experimental steps: 20 μL of WDR5 protein, 20 μL of a fluorescent probe, and 20 μL of a compound of different concentration gradients were added to a 384-well plate respectively. After incubation for 0.5 hrs, the fluorescence was read on a multifunctional microplate reader at an excitation wavelength of 485 nm and an emission wavelength of 535 nm, to compute the mP value. The inhibition rate was computed as per the formula below, and then the IC50 value was computed using GraphPad software.

| GI50 [1] [µM] | GI50 [2] [µM] | Whether the methylation level of H3K4 was inhibited [3] | IC50 (MLL1-WDR5 PPI) [µM] | Compound |
| --- | --- | --- | --- | --- |
| 25.9 | 22.7 | Yes | 0.489 | CN1CCN(c2ccc(-c3ccc(NC(=O)C4CCOCC4)cc3)cc2Nc2ncnc(Cl)c2N)CC1 [Example 33, N-(3″-((5-amino-6-chloropyrimidin-4-yl)amino)-4″-(4-methylpiperazin-1-yl)-[1,1′-biphenyl]-4-yl)tetrahydro-2H-pyran-4-carboxamide] |
| 17.5 | 16.2 | Yes | 0.24 | CN1CCN(c2ccc(-c3ccc(C(=O)N(C)C)cc3)c(F)c2Nc2ncnc(Cl)c2N)CC1 [Example 54, 3″-((5-amino-6-chloropyrimidin-4-yl)amino)-2′-fluoro-N,N-dimethyl-4″-(4-methylpiperazin-1-yl)-[1,1′-biphenyl]-4-carboxamide] |
| 23.2 | 20.8 | Yes | 0.287 | CN1CCC(C(=O)Nc2ccc(-c3ccc(N4CCN(C)CC4)c(Nc4ncnc(Cl)c4N)c3)cc2)CC1 [Example 34, N-(3″-((5-amino-6-chloropyrimidin-4-yl)amino)-4″-(4-methylpiperazin-1-yl)-[1,1′-biphenyl]-4-yl)-1-methylpiperidin-4-carboxamide] |
| 9.04 | 8.43 | Yes | 0.102 | CN1CCN(c2ccc(-c3ccc(C(=O)NCCN4CCOCC4)cc3)c(F)c2Nc2ncnc(Cl)c2N)CC1 [Example 56] |
| 26.4 | 31.2 | Yes | 0.176 | CN1CCN(c2ccc(-c3ccc(NC(=O)C4CCOCC4)cc3)c(F)c2Nc2ncnc(Cl)c2N)CC1 [Example 59, N-(3″-((5-amino-6-chloropyrimidin-4-yl)amino)-2′-fluoro-4″-(4-methylpiperazin-1-yl)-[1,1′-biphenyl]-4-yl)tetrahydro-2H-pyran-4-carboxamide] |
| 39.2 | 34 | Yes | 0.217 | CN1CCN(C(=O)c2ccc(-c3ccc(N4CCN(C)CC4)c(Nc4ncnc(Cl)c4N)c3)cc2)CC1 [Example 27, (3″-((5-amino-6-chloropyrimidin-4-yl)amino)-4″-(4-methylpiperazin-1-yl)-[1,1′-biphenyl]-4-yl)(4-methylpiperazin-1-yl) methanone] |
| 28.4 | 26.2 | Yes | 0.328 | CN1CCN(c2ccc(-c3cccc(NC(=O)C4CCOCC4)c3)cc2Nc2ncnc(Cl)c2N)CC1 [Example 40, N-(3″-((5-amino-6-chloropyrimidin-4-yl)amino)-4″-(4-methylpiperazin-1-yl)-[1, 1′-biphenyl]-3-yl)tetrahydro-2H-pyran-4-carboxamide] |
| 22.7 | 22.6 | Yes | 0.105 | CN1CCC(C(=O)Nc2ccc(-c3ccc(N4CCN(C)CC4)c(Nc4ncnc(Cl)c4N)c3F)cc2)CC1 [Example 60, N-(3″-((5-amino-6-chloropyrimidin-4-yl)amino)-2′-fluoro-4″-(4-methylpiperazin-1-yl)-[1,1′-biphenyl]-pyridin-4-yl)-1-methylpiperidin-4-carboxamide] |

Second part, the compound before the results:

| Compound | GI50 [1] [µM] | GI50 [2] [µM] | Whether the methylation level of H3K4 was inhibited [3] | IC50 (MLL1-WDR5 PPI) [µM] |
| --- | --- | --- | --- | --- |
| CC(C)NC(=O)c1ccc(-c2ccc(N3CCN(C)CC3)c(Nc3ncnc(Cl)c3N)c2)cc1 [Example 31, 3″-((5-amino-6-chloropyrimidin-4-yl)amino)-N-isopropyl-4″-(4-methylpiperazin-1-yl)-[1,1′-biphenyl]-4-carboxamide] | 10.5 | 18.8 | Yes | 0.46 |
| CN1CCN(c2cc(F)c(-c3ccc(C(=O)NCC4CCOCC4)cc3)cc2Nc2ncnc(Cl)c2N)CC1 [Example 71, 5″-((5-amino-6-chloropyrimidin-4-yl)amino)-2′-fluoro-4″-(4-methylpiperazin-1-yl)-N-((tetrahydro-2H-pyran-4-yl)methyl)-[1,1′-biphenylyl]-4-carboxamide] | 15.7 | 12.3 | Yes | 0.036 |
| CN1CCN(c2cc(F)c(-c3ccc(C(=O)N4CCOCC4)cc3)cc2Nc2ncnc(Cl)c2N)CC1 [Example 67, (5″-((5-amino-6-chloropyrimidin-4-yl)amino)-2′-fluoro-4″-(4-methylpiperazin-1-yl)-[1,1′-biphenyl]-4-yl)(morpholino)methanone] | 19.6 | 16.5 | Yes | 0.036 |
| CN1CCN(c2ccc(-c3ccc(C(=O)N(C)C)cc3)cc2Nc2ncnc(Cl)c2N)CC1 [Example 26, 3″-((5-amino-6-chloropyrimidin-4-yl)amino)-N,N-dimethyl-4″-(4-methylpiperazin-1-yl)-[1,1′-biphenyl]-4-carboxamide] | 48.6 | 30.7 | Yes | 0.36 |
| CN1CCN(c2ccc(-n3cc(C(=O)N4CCOCC4)nn3)cc2Nc2ncnc(Cl)c2N)CC1 [Example 47, (1-(3-((5-amino-6-chloropyrimidin-4-yl)amino)-4-(4-methylpiperazin-1-yl)phenyl)-1H-1,2,3-triazole-4-yl)(morpholino)methanone] | 10.6 | 14.7 | Yes | 0.24 |
| CN1CCN(c2ccc(-c3ccc(N)cc3)cc2Nc2ncnc(Cl)c2N)CC1 [Example 32, N^4-(4′-amino-4-(4-methylpiperazin-1-yl)-[1,1′-biphenyl]-3-yl)-6-chloropyrimidine-e-4,5-diamine] | 40 | 27.2 | Yes | 0.691 |
| CN1CCN(c2cc(F)c(-c3ccc(C(=O)NCCCN4CCOCC4)cc3)cc2Nc2ncnc(Cl)c2N)CC1 [Example 69] | 25.6 | 17.3 | Yes | 0.021 |
| CN(C)CCCNC(=O)c1ccc(-c2ccc(N3CCN(C)CC3)c(Nc3ncnc(Cl)c3N)c2)cc1 [Example 28, 3″-((5-amino-6-chloropyrimidin-4-yl)amino)-N-(3-(dimethylamino)propyl)-4″-(4-methylpiperazin-1-yl)-[1,1′-biphenyl]-4-carboxamide] | 29.7 | 24.3 | Yes | 0.27 |
| CN1CCN(c2ccc(-c3cccc(N)c3)cc2Nc2ncnc(Cl)c2N)CC1 [Example 39, N-(3′-amino-4-(4-methylpiperazin-1-yl)-[1,1′-biphenyl]-3-yl)-6-chloropyrimidine-4,5-diamine] | 32.2 | 28.6 | Yes | 0.675 |
| COC(=O)c1cn(-c2ccc(N3CCN(C)CC3)c(Nc3ncnc(Cl)c3N)c2)nn1 [Example 46, Methyl 1-(3-((5-amino-6-chloropyrimidin-4-yl)amino)-4-(4-methylpiperazin-1-yl)phenyl)-1H-1,2,3-triazole-4-carboxylate] | 22.4 | 11.7 | Yes | 0.865 |
